Here are results for two substances from patent publication US7479478B2, “Human parathyroid hormone modifications, preparation and use” (The General Hospital Corporation, priority 1998, dated 2009).

Entries after “also recorded” stand apart in the source; their conditions may differ. No end group written: not given here.

The target in assay [1] is T1, human PTH-1 receptors (Homo sapiens, UniProt Q03431).
T1 construct: expressed in transfected cells
T1 sequence (Q03431 27-593): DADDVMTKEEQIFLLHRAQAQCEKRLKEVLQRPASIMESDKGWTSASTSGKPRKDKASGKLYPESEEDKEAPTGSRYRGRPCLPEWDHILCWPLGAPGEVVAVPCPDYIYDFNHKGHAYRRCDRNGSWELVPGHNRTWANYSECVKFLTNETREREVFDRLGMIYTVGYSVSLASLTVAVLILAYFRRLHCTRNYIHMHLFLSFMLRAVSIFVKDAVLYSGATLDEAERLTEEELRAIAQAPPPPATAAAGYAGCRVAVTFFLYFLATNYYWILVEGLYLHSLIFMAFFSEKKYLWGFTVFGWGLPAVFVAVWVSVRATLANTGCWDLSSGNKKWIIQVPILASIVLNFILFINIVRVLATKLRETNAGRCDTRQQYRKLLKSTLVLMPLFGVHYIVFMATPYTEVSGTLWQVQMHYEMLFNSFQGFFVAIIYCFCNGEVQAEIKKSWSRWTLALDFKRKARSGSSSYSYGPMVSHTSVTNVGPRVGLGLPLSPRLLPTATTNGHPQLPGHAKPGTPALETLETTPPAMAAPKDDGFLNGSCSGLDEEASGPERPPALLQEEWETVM
Put plainly: PLC activation (IP3 formation) in HKRK B7 cells. The assay is classed as cell-based. Particulars: HKRK B7 cells. Here is the method:
(§1) HKRK B7 or EW5 cells (32), subclones of LLC-PKI renal epithelial cells that stably express human or rat PTH-1 receptors (950,000 and 320,000 receptors/cell, respectively), were maintained under 5% CO2 in air in Dulbecco's modified essential medium containing 7% fetal bovine serum (FBS) and 1% penicillin/streptomycin (GIBCO-BRL, Grand Island, N.Y.). HEK-293 and COS-7 cells were cultured similarly, except that 10% FBS was used in the medium. Cells were seeded into 24-well plates two days before assay at a density of 2-2.5×10^5 cells/well (HKRK B7 or EW 5 cells) or 6×10^5 cells/well (in 6-well plates) (HEK-293 cells). In experiments involving HEK-293 cells, DNA transfections were performed 24 hr after plating and inositol radiolabel was added 24 hr thereafter (see below). COS-7 cell transfections were performed as previously described (Gardella, T. J., et al., Endocrinology 132(5):2024-2030 (1993))
PLC was activated by PTH agonists in the presence of 30 mM LiCl at 37° C. for 30 min after 16 hr of labeling with [^3H]myo-inositol (3 uCi/ml) in serum-free medium containing 0.1% bovine serum albumin. The reactions were stopped by rapid aspiration and addition of cold 5% TCA. Water-soluble radiolabeled inositol trisphosphate (IP3) was isolated after ether extraction by ion-exchange chromatography (Guo, J., et al., Endocrinology 136(9):3884-3891 (1995)). In experiments involving HEK 293 cells, cells previously transfected with human PTHR cDNA (in the pcDNA1 expression vector HKRK) using Lipofectamine (Gibco BRL) were labeled with [^3H]myo-inositol and assayed as described above, except that total water-soluble [^3H]inositol polyphosphates were collected as a single fraction from the ion-exchange columns.

Another assay deals with T2, rat PTH-1 receptors (Rattus norvegicus, UniProt P25961).
T2 construct: expressed in transfected cells
T2 sequence (P25961 27-591): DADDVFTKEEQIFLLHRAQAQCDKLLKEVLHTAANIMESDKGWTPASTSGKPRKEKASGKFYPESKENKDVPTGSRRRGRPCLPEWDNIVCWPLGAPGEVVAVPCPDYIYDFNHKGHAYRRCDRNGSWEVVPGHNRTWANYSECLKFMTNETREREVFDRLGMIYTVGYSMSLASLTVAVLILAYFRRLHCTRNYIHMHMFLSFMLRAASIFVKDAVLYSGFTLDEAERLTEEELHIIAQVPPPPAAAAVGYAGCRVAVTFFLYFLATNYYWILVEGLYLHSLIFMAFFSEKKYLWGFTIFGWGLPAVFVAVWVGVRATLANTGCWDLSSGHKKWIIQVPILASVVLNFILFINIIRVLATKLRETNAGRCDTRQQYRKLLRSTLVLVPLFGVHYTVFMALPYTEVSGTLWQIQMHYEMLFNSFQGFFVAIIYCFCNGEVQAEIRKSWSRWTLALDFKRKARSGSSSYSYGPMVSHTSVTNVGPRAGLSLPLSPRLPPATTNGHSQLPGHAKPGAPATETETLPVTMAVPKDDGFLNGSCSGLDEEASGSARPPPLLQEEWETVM
Description: Radioligand binding in EW5 cells. The conditions noted are these: compared with human PTH-1 receptor. Here is the method:
as §1
Radioligand competition binding assays were performed at 2-8° C. for 6 hr using ^125I-[Nle^8,21, Tyr^34]rat PTH-(1-34) (100,000 cpm/well) in the presence or absence of non-radioactive hPTH-(1-34) analogs. Cell layers were washed three times before solubilization for determination of cell-associated radioactivity. […]

For assay [2], the target named is T1, human PTH-1 receptors. Put plainly: Radioligand competition binding with 125I-[Nle8,21,Tyr34]rat PTH-(1-34) in HKRK B7 cells. Particulars: read-out: apparent IC50 for binding. As for the experimental part:
as §1, with “(1993)) Radioligand competition binding assays were performed at 2-8° C. for 6 hr using ^125I-[Nle^8,21,[…]]rat PTH-(1-34) (100,000 cpm/well) in the presence or absence of non-radioactive hPTH-(1-34) analogs. Cell layers were washed three times before solubilization for determination of cell-associated radioactivity.” for “(1993))”
(In general: Displacement assays read how much labelled ligand stays bound in the presence of the test substance.)

For assay [3], the target named is T1, human PTH-1 receptors. Description: PLC activation (total inositol polyphosphates) in transiently transfected HEK-293 cells. The assay is classed as cell-based. Particulars: 1000 nM peptide, mean ± SEM. Here is the method:
as §1
PLC was activated by PTH agonists in the presence of 30 mM LiCl at 37° C. for 30 min after 16 hr of labeling with [^3H]myo-inositol (3 uCi/ml) in serum-free medium containing 0.1% bovine serum albumin. […]
Total inositol polyphosphate produced in response to 1000 nM of the peptides shown were measured in HEK-293 cells that transiently expressed human PTH-1 receptors. Results are expressed as means±SEMs of the % of basal activity for triplicate determinations.

In the case of “GVSEIQLMHNLGKHLNSMRRVEWLRKKL [[Gly^1,Arg^19]hPTH-(1-28)]”, the “fold reduction of PLC potency versus hPTH(1-34)” value with human PTH-1 receptors [1] was “approximately 100 fold”. In the assay with human PTH-1 receptors [1] (up to 1000 nM or 10 μM), the “PLC activation (IP3 formation), result in words” value was “no increase in PLC activity; also recorded: strikingly and selectively impaired”.

On to “SVSEIQLMHNLGKHLNSMERVEWLRKKL-NH2 [hPTH-(1-28)]”, for which, on rat PTH-1 receptors, the “binding affinity for rat PTH-1 receptor, result in words” value is reported as “comparable”. At human PTH-1 receptors [2], the half-maximal inhibitory concentration (IC50) (usually the midpoint of a concentration-inhibition curve) came to 1 µM. Moreover, the “fold less potent than hPTH-(1-29) in PLC activation” value on human PTH-1 receptors [1] was “approximately 5 fold”. The EC50 (commonly the concentration giving half of the maximal effect) on human PTH-1 receptors [1] (read-out: EC50 for PLC activity) was 6 µM. Moreover, the “PLC Activity (% Basal)” value at human PTH-1 receptors [3] turned out to be 305 ± 20 % Basal.
